In patent US7049461B1, “Treatment of leukemia” (University of Central Florida, priority 2001, dated 2006):

Experiments:
[1] = system: human leukemia cancer cells (ATCC JURK); assay: Cytotoxicity assay: growth inhibition of Jurkat cells (MTS/PMS); type: cell-based; conditions: approximately 48 hours, test concentration not given
Protocol: The activity against leukemia cancer cells of the compounds (as earlier reported) was realized by the following procedure which determines the inhibitory effect of test samples on the growth of human leukemia cancer cells (ATCC JURK). The Jurkat cells are grown in RPMI 1640 media+10% Fetal bovine serum+1% Antibiotic/Antimycotic+1% of HEPES Buffer (1M)+1% Sodium Purivate (100 mM)+2.5% D-(+) Glucose Solution for approximately 48 hours at 37° C./5% CO2 […] compound.
Growth/Non-Growth of the cells (e.g., cell density) is determined using Promega's MTS/PMS assay system. MTS (3-(4,5-dimethylthiazol-2-yl)-5-(3-carboxymethoxyphenyl)-2-(4-sulfophenyl)-2H-tetrazolium, inner salt) is an aqueous compound that is reduced to soluble formazan by the presence of NADH formed by dehydrogenases present within the Jurkat cells. The absorbance of the formazan can be measured at 490 nm and is directly proportional to the number of living cells present in the culture. PMS (Phenazine Methosulfate) is added an electron coupling reagent and greatly increases the rate of reduction. […]
In order to establish the accuracy of this assay a Positive Control consisting of 50 μM Methotrexate should […] the net absorbance to less than 90% of the Negative Control (Jurkat cells are somewhat resistant to methotrexate) is utilized.

[2] = Solubility in organic solvents; type: physicochemical
[3] = Stability in solutions; type: physicochemical; conditions: solution heated or stored for a long time; forms OF-12
[4] = system: mice; conditions: cited from earlier work

Solubility ([2]; in DMSO, DMFA, dichloroethane, acetonitrile) | Solubility ([2]; in hexane) | Compound | percent activity against human leukemia [1] | Stability in solutions [3] | toxicity in mice LD50 [4]
– | – | CCOc1ccc(C(Cl)=CC(=NN=C2c3ccccc3-c3ccccc32)C(=O)OC)cc1 [3F-19, 4-Chloro-4-(4-ethoxy-phenyl)-2-(fluoren-9-ylidene-hydrazono)-but-3-enoic acid methyl ester] | 100% | – | –
highly soluble | insoluble | CCOc1ccc(C(=O)CC(O)(NN=C2c3ccccc3-c3ccccc32)C(=O)OC)cc1 (stereo not shown) [OF-13, 4-(4-Ethoxy-phenyl)-2-(N′-fluoren-9-ylidene-hydrazino)-2-hydroxy-4-oxo-butyric acid methyl ester] | 97% | not stable in solutions and decomposes quickly | –
– | – | Nc1ccn([C@@H]2O[C@H](CO)[C@@H](O)[C@@H]2O)c(=O)n1 [cytarabine] | – | – | 826 mg/kg
– | – | COc1cccc2c1C(=O)c1c(O)c3c(c(O)c1C2=O)C[C@@](O)(C(C)=O)C[C@@H]3O[C@H]1C[C@H](N)[C@H](O)[C@H](C)O1 [daunorubicin] | – | – | 26 mg/kg
